Laboratory results as given in PubChem BioAssay AID1963863 (Molecular Pharmacology Branch, DTP, NCI, 2024).

Test system: 931267-113-T-J1-PDC KRAS spheroid with HUVEC/MSC, viability
Test: Anticancer human tumor 931267-113-T-J1-PDC patient-derived colon adenocarcinoma cell line growth inhibition [KRAS2]
Details: for IC50: curve of first compound; for viability, T/C: stronger effect = lower value
In short: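 KRAS-mutant tumor cells were grown as spheroids with HUVEC endothelial cells and human MSCs as stroma. Targeted agents were tested alone and with KRAS pathway inhibitors. Doses started at or near clinical Cmax, or 10 microM, descending half-log.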

[1] = second compound 0.1 µM, first compound 0.0316 µM
[2] = second compound 0.1 µM, first compound 0.1 µM
[3] = second compound 0.1 µM, first compound 0.316 µM
[4] = second compound 0.1 µM, first compound 1 µM
[5] = second compound 0.1 µM, first compound 3.16 µM
[6] = second compound 0.316 µM, first compound 0.0316 µM
[7] = second compound 0.316 µM, first compound 0.1 µM
[8] = second compound 0.316 µM, first compound 0.316 µM
[9] = second compound 0.316 µM, first compound 1 µM
[10] = second compound 0.316 µM, first compound 3.16 µM
[11] = second compound 1 µM, first compound 0.0316 µM
[12] = second compound 1 µM, first compound 0.1 µM
[13] = second compound 1 µM, first compound 0.316 µM
[14] = second compound 1 µM, first compound 1 µM
[15] = second compound 1 µM, first compound 3.16 µM
[16] = second compound 3.16 µM, first compound 0.0316 µM
[17] = second compound 3.16 µM, first compound 0.1 µM
[18] = second compound 3.16 µM, first compound 0.316 µM
[19] = second compound 3.16 µM, first compound 1 µM
[20] = second compound 3.16 µM, first compound 3.16 µM
[21] = second compound 10 µM, first compound 0.0316 µM
[22] = second compound 10 µM, first compound 0.1 µM
[23] = second compound 10 µM, first compound 0.316 µM
[24] = second compound 10 µM, first compound 1 µM
[25] = second compound 10 µM, first compound 3.16 µM
[26] = second compound 0.1 µM, first compound 10 µM
[27] = second compound 0.316 µM, first compound 10 µM
[28] = second compound 1 µM, first compound 10 µM
[29] = second compound 3.16 µM, first compound 10 µM
[30] = second compound 10 µM, first compound 10 µM
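Also: compound exposure lasted 7 days before the readout.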
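For viability, T/C in this document: 100% = DMSO vehicle control viability.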

Compound	IC50 (second compound 0.1 µM) [nM]	IC50 (second compound 0.316 µM) [nM]	IC50 (second compound 1 µM) [nM]	IC50 (second compound 3.16 µM) [nM]	IC50 (second compound 10 µM) [nM]	viability, T/C [1] [%]	viability, T/C [2] [%]	viability, T/C [3] [%]	viability, T/C [4] [%]	viability, T/C [5] [%]	viability, T/C [6] [%]	viability, T/C [7] [%]	viability, T/C [8] [%]	viability, T/C [9] [%]	viability, T/C [10] [%]	viability, T/C [11] [%]	viability, T/C [12] [%]	viability, T/C [13] [%]	viability, T/C [14] [%]	viability, T/C [15] [%]	other results
CC1COCCN1c1cc(-c2ccnn2C)c2ccnc(-c3ccn[nH]3)c2n1 (stereo not given) + COc1cc2nc(C)nc(NC(C)c3cc(N)cc(C(F)(F)F)c3)c2cc1OC1CCOC1	45.2	43	27.9	33.3	< 10	61.2	25	19.5	15.1	15.2	59.3	24.5	17.8	15.4	15.3	46.6	24.1	13.6	17.7	15.9	viability, T/C (second compound 0.1 µM, first compound 0.01 µM): 75.4%; viability, T/C (second compound 0.316 µM, first compound 0.01 µM): 83.4%; viability, T/C (second compound 1 µM, first compound 0.01 µM): 76.3%; viability, T/C (second compound 3.16 µM, first compound 0.01 µM): 70.4%; viability, T/C [16]: 51.6%; viability, T/C [17]: 16.2%; viability, T/C [18]: 11.2%; viability, T/C [19]: 15%; viability, T/C [20]: 14%; viability, T/C (second compound 10 µM, first compound 0.01 µM): 1.71%; viability, T/C [21]: 2.62%; viability, T/C [22]: 3.95%; viability, T/C [23]: 1.66%; viability, T/C [24]: 2.29%; viability, T/C [25]: 1.1%
CC1OCC2(CCN(c3cnc(Sc4ccnc(N)c4Cl)c(N)n3)CC2)C1N (stereo not given) + COc1cc2nc(C)nc(NC(C)c3cc(N)cc(C(F)(F)F)c3)c2cc1OC1CCOC1	> 10000	> 10000	> 10000	> 10000	< 31.6	79.3	59	75.5	77.5	68.3	62.2	56.1	65	68.1	70.6	70.6	72.8	56	63.1	79	viability, T/C [26]: 90.7%; viability, T/C [27]: 77.9%; viability, T/C [28]: 64.9%; viability, T/C [16]: 70.7%; viability, T/C [17]: 49.8%; viability, T/C [18]: 51.8%; viability, T/C [19]: 54.9%; viability, T/C [20]: 61.4%; viability, T/C [29]: 67.6%; viability, T/C [21]: 3.02%; viability, T/C [22]: 2.08%; viability, T/C [23]: 4.77%; viability, T/C [24]: 2.12%; viability, T/C [25]: 2.08%; viability, T/C [30]: 0.42%
Cn1nccc1Nc1nccc(-c2cc3c(s2)C(C)(C)N(CCN2CCOCC2)C3=O)n1 + COc1cc2nc(C)nc(NC(C)c3cc(N)cc(C(F)(F)F)c3)c2cc1OC1CCOC1	451	517	464	229	< 31.6	80.2	95.3	54	29.5	9.12	84.6	88.2	62.7	31.2	4.2	79.8	73.6	62.6	26.2	8.33	viability, T/C [26]: 3.49%; viability, T/C [27]: 2.13%; viability, T/C [28]: 2.61%; viability, T/C [16]: 71.3%; viability, T/C [17]: 68.4%; viability, T/C [18]: 42.4%; viability, T/C [19]: 15.5%; viability, T/C [20]: 3.42%; viability, T/C [29]: 2.28%; viability, T/C [21]: 3.64%; viability, T/C [22]: 2.94%; viability, T/C [23]: 2.42%; viability, T/C [24]: 1.97%; viability, T/C [25]: 0.91%; viability, T/C [30]: 0.28%
